{"source": "BindingDB's records for doi:10.1016/j.chembiol.2007.10.017", "about": "(University of California Irvine, 2007)", "target": "T1, Monoglyceride lipase (Rattus norvegicus, UniProt Q8R431)", "T1 sequence (Q8R431 whole entry)": "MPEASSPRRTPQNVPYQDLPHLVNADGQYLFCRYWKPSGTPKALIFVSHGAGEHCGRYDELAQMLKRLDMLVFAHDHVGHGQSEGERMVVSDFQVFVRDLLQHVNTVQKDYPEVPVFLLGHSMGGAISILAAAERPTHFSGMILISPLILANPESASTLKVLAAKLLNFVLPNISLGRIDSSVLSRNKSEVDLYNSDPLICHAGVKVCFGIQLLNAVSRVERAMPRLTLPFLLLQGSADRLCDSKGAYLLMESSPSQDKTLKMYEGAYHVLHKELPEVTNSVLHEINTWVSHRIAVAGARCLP", "assay": "Inhibition Assay", "conditions": "pH 8", "description": "The measurement of the ability of URB602 compound to inhibit MGL activity.", "data": [{"smiles": "O=C(Nc1cccc(-c2ccccc2)c1)Oc1ccccc1", "note": "[URB602, 3l]", "values": [{"measurement": "IC50", "result": 243, "unit": "µM"}]}, {"smiles": "O=C(NCCCCCc1ccccc1)OC1CCCCC1", "note": "[URB602, 3a]", "values": [{"measurement": "IC50", "result": "> 300", "unit": "µM"}]}, {"smiles": "O=C(Nc1cccc(-c2ccccc2)c1)OCCCCCc1ccccc1", "note": "[URB602, 3c]", "values": [{"measurement": "IC50", "result": "> 300", "unit": "µM"}]}, {"smiles": "O=C(Nc1cccc(-c2ccccc2)c1)SC1CCCCC1", "note": "[URB602, 6]", "values": [{"measurement": "IC50", "result": "> 300", "unit": "µM"}]}, {"smiles": "O=C(CC1CCCCC1)Nc1cccc(-c2ccccc2)c1", "note": "[URB602, 5]", "values": [{"measurement": "IC50", "result": "> 300", "unit": "µM"}]}, {"smiles": "O=C(Nc1cccc(-c2ccccc2)c1)OC(CO)CO", "note": "[URB602, 3n]", "values": [{"measurement": "IC50", "result": "> 300", "unit": "µM"}]}, {"smiles": "O=C(Nc1cccc(-c2ccccc2)c1)NC1CCCCC1", "note": "[URB602, 4a]", "values": [{"measurement": "IC50", "result": 115, "unit": "µM"}]}, {"smiles": "O=C(Nc1cccc(-c2ccccc2)c1)Oc1cccc(-c2ccccc2)c1", "note": "[URB602, 3j]", "values": [{"measurement": "IC50", "result": "> 300", "unit": "µM"}]}, {"smiles": "Cc1cccc(-c2cccc(NC(=O)OC3CCCCC3)c2)c1", "note": "[URB602, 3d]", "values": [{"measurement": "IC50", "result": "> 300", "unit": "µM"}]}, {"smiles": "O=C(Nc1cccc(Oc2cccc(-c3ccccc3)c2)c1)OC1CCCCC1", "note": "[URB602, 3f]", "values": [{"measurement": "IC50", "result": "> 300", "unit": "µM"}]}, {"smiles": "Cc1cccc(-c2cccc(NC(=O)OC(CO)CO)c2)c1", "note": "[URB602, 3m]", "values": [{"measurement": "IC50", "result": "> 300", "unit": "µM"}]}, {"smiles": "O=C(Nc1cccc(-c2cccc(C(F)(F)F)c2)c1)OC1CCCCC1", "note": "[URB602, 3e]", "values": [{"measurement": "IC50", "result": "> 300", "unit": "µM"}]}, {"smiles": "O=C(Nc1cccc(-c2ccccc2)c1)OCC(O)CO", "note": "(centres undefined) [URB602, 3h]", "values": [{"measurement": "IC50", "result": "> 300", "unit": "µM"}]}, {"smiles": "O=C(Nc1ccccc1)OC1CCCCC1", "note": "[URB602, 3b]", "values": [{"measurement": "IC50", "result": "> 300", "unit": "µM"}]}, {"smiles": "CN(C(=O)OC1CCCCC1)c1cccc(-c2ccccc2)c1", "note": "[URB602, 3o]", "values": [{"measurement": "IC50", "result": "> 300", "unit": "µM"}]}, {"smiles": "CC1(C)OCC(OC(=O)Nc2cccc(-c3ccccc3)c2)CO1", "note": "[URB602, 3i]", "values": [{"measurement": "IC50", "result": "> 300", "unit": "µM"}]}, {"smiles": "O=C(Nc1ccccc1-c1ccccc1)OC1CCCCC1", "note": "[URB602, 3g]", "values": [{"measurement": "IC50", "result": "> 300", "unit": "µM"}]}, {"smiles": "O=C(Nc1ccc(-c2ccccc2)cc1)OC1CCCCC1", "note": "[URB602, 3k]", "values": [{"measurement": "IC50", "result": "> 300", "unit": "µM"}]}, {"smiles": "O=C(Nc1cccc(-c2ccccc2)c1)OC1CCCCC1", "note": "[cyclohexyl biphenyl-3-ylcarbamate]", "values": [{"measurement": "IC50", "result": 223, "unit": "µM"}]}]}
